Laboratory results from US9090600B2, “Fungicidal 4-substituted-3-{phenyl[(heterocyclylmethoxy)imino]methyl}-1,2,4-oxadizol-5(4H)-one derivatives” (BAYER INTELLECTUAL PROPERTY GMBH, priority 2011, dated 2015).
Marks after values point to notes of the source that are not given here.

What was measured:
[1] = pH 2.7
[2] = system: Phytophthora infestans; assay type: in vivo; conditions: tomato plants, spray, 500 ppm, grading 5 days after contamination

Row | Structure (SMILES) | LogP [1] | Eff. % [2] [%]
1 | CCC(CC)COC(=O)Nc1cccc(CO/N=C(/c2ccccc2)c2noc(=O)n2C)n1 [Example 192] | 4.78 [a] | 100
2 | CCCCC(C)OC(=O)Nc1cccc(CO/N=C(/c2ccccc2)c2noc(=O)n2C)n1 (centres unmarked) [Example 200] | 4.78 [a] | 98
3 | CCn1c(/C(=N\OCc2cccc(NC(=O)OCc3ccccc3)n2)c2ccccc2)noc1=O [Example 201] | 4.24 [a] | 100
4 | Cn1c(/C(=N\OCc2cccc(NC(=O)c3cc(F)cc(F)c3)n2)c2ccccc2)noc1=O [Example 202] | 3.92 [a] | 98
5 | Cc1cccc(CCOC(=O)Nc2cccc(CO/N=C(/c3ccccc3)c3noc(=O)n3C)n2)c1 [Example 210] | 4.53 [a] | 75
6 | COC(C(=O)Nc1cccc(CO/N=C(/c2ccccc2)c2noc(=O)n2C)n1)c1ccccc1 (centres unmarked) [Example 218] | 3.85 [a] | 80
7 | COc1ccccc1OC(C)C(=O)Nc1nc(CO/N=C(/c2ccccc2)c2noc(=O)n2C)cs1 (centres unmarked) [Example 219] | 3.89 [a] | 85
8 | CCC(C)(C)C(=O)Nc1cccc(CO/N=C(/c2ccccc2)c2noc(=O)n2C)n1 [Example 221] | 3.8 [a] | 100
9 | CCCCCOC(=O)Nc1cccc(CO/N=C(/c2cccc(C)c2)c2noc(=O)n2C)n1 [Example 224] | 4.78 [a] | 93
10 | CC(C)COC(=O)Nc1cccc(CO/N=C(/c2ccccc2)c2noc(=O)n2C)n1 [Example 225] | 4.01 [a] | 99
11 | Cc1ccc(OCC(=O)Nc2nc(CO/N=C(/c3ccccc3)c3noc(=O)n3C)cs2)cc1 [Example 229] | 3.8 [a] | 100
12 | CC(Oc1ccccc1)C(=O)Nc1cccc(CO/N=C(/c2ccccc2)c2noc(=O)n2C)n1 (centres unmarked) [Example 232] | 3.96 [a] | 100
13 | CC(C)=CCCC(C)CC(=O)Nc1cccc(CO/N=C(/c2ccccc2)c2noc(=O)n2C)n1 (centres unmarked) [Example 235] | 4.88 [a] | 100
14 | CC(CC1CCCCC1)Nc1cccc(CO/N=C(/c2ccccc2)c2noc(=O)n2C)n1 (centres unmarked) [Example 236] | 5.14 [a] | 100
15 | Cn1c(/C(=N\OCc2cccc(NC(=O)CC(F)(F)F)n2)c2ccccc2)noc1=O [Example 237] | 3.19 [a] | 97
16 | Cn1c(/C(=N\OCc2csc(NC(=O)OCc3ccccc3)n2)c2ccccc2)noc1=O [Example 239] | 3.73 [a] | 84
17 | Cn1c(/C(=N\OCc2cccc(NC(=O)c3ccccc3Br)n2)c2ccccc2)noc1=O [Example 243] | 3.67 [a] | 99
18 | Cn1c(C(=NOCc2cccc(NC(=O)OC(C)(C)C)n2)c2ccc(F)cc2)noc1=O [Example 246] | 4.06 [a] | 100
19 | Cn1c(C(=NOCc2cccc(NC(=O)CCCC(C)(C)C)n2)c2ccccc2)noc1=O [Example 247] | 4.53 [a] | 99
20 | Cn1c(C(=NOCc2csc(NC(=O)c3ccc(F)cc3)n2)c2ccccc2)noc1=O [Example 251] | 3.55 [a] | 98
21 | Cn1c(C(=NOCc2csc(NC(=O)c3ccccc3)n2)c2ccccc2)noc1=O [Example 257] | 3.44 [a] | 100
22 | Cn1c(C(=NOCc2cccc(N(C(=O)OC(C)(C)C)C(=O)OC(C)(C)C)n2)c2cccc(F)c2)noc1=O [Example 261] | 4.51 [a] | 100
23 | Cn1c(C(=NOCc2csc(NC(=O)c3cc(F)cc(F)c3)n2)c2ccccc2)noc1=O [Example 263] | 3.8 [a] | 78
24 | Cn1c(C(=NOCc2cccc(NC(=O)Cc3cccs3)n2)c2ccccc2)noc1=O [Example 264] | 3.42 [a] | 94
25 | CCCC(=O)Nc1cccc(CON=C(c2ccccc2)c2noc(=O)n2C)n1 [Example 266] | 3.13 [a] | 100
